Test results as given in patent US4487771A, “C-3 Substituted 1,4-benzodiazepines and pharmaceutical utilization thereof” (Medosan Industrie Biochimiche Riunite, S.p.A., priority 1983, dated 1984).

Columns and labels:
[1] = Toxicity test, LD50 mice p.os; details: mouse, in vivo, po
From the text: |Compound LD50 mice p. os in mg/kg

Anti-pentylenetetrazol = assay type: in vivo; details: oral, 30 minutes before pentylenetetrazol treatment 130 mg/kg s.c.
Procedure: (§1) The pharmacologic activity of the compounds of the invention has been assessed by the following classical tests which are known to indicate useful therapeutic activities:
Anti-pentylenetetrazol (L. O. Randall, W. Schallek, G. A. Heise, E. F. Keith and R. Bagdon: J. Pharmacol. Exp. Therapeutics, 129, 163-171, 1960).
(§2) Main neuropharmacological effects of substituted benzodiazepine in oral
^a 30 minutes before pentylenetetrazol treatment 130 mg/kg s.c.

Anti-ECS = assay type: in vivo; details: oral, 60 minutes before ECS
Procedure: as §1
ECS (E. A. Swinyard, W. C. Brown and L. S. Goodman: J. Pharmacol. Exp. Therapeutics, 106, 319-330, 1952.)
as §2
^b 60 minutes before ECS.

Analgesic = assay type: in vivo; details: oral, prolongs reaction time 50 percent of control group in 50 percent of treated animals, read-out: Analgesic DE50
Procedure: as §1
Analgesic (N. B. Eddy and D. Leimbach: J. Pharmacol. Exp. Therapeutics, 107, 385-393, 1953.)
as §2
^c at 240 minutes after drug treatment.
^c' at 60 minutes after drug treatment.
^(x) Prolongs reaction time 50 percent of control group in 50 percent

Miorelaxation = assay type: in vivo; details: oral, reduces "falling time" 50 percent of control group in 50 percent of treated animals, read-out: Miorelaxation DE50
Procedure: as §1
Miorelaxation (N. W. Dunham and T. S. Miya: J. Am. Pharm. Ass., 46, No. 3, 208-209, 1957.)
as §2
^d at 120 minutes after drug treatment.
^d' at 60 minutes after drug treatment.
^(xx) Reduces "falling time" 50 percent of control group in 50 percen

[2] = Spontaneous Motor Activity; assay type: in vivo; details: 0.5 h; oral; 30 minutes period starting 30 minutes after drug treatment; reduces movements counts 50 percent of control activity in group of 4 animals; read-out: Spontaneous Motor Activity DE50
Procedure: as §1
Spontaneous Motor Activity (W. J. Kinnard and C. J. Carr: J. Pharmacol. Exp. Therapeutics, 121, 354-361, 1957.)
as §2
^e measured in 30 minutes period starting 30 minutes after drug
^(xxx) Reduces movements counts 50 percent of control activity in
group of 4 animals: 5 groups/dose.

[3] = convulsions, read-out: Anti-pentylenetetrazol, Convulsions DE50
[4] = death, read-out: Anti-pentylenetetrazol, Death DE50
[5] = convulsions, read-out: Anti-ECS, Convulsions DE50
[6] = death, read-out: Anti-ECS, Death DE50
[7] = 4 h, at 240 minutes after drug treatment
[8] = 2 h, at 120 minutes after drug treatment

| Compound | LD50 [1] | ED50 (Anti-pentylenetetrazol; [3]) | ED50 (Anti-pentylenetetrazol; [4]) | ED50 (Anti-ECS; [5]) | ED50 (Anti-ECS; [6]) | ED50 (Analgesic; 1 h, at 60 minutes after drug treatment (c')) | ED50 (Miorelaxation; 1 h, at 60 minutes after drug treatment (d')) | ED50 [2] | ED50 (Analgesic; [7]) | ED50 (Miorelaxation; [8]) |
| --- | --- | --- | --- | --- | --- | --- | --- | --- | --- | --- |
| CC(=O)NCCCC(=O)OC1N=C(c2ccccc2Cl)c2cc(Cl)ccc2N(C)C1=O (centres unmarked) [Example 6, 3-(4-acetamido)-butyryloxy-7-chloro-5-o-chlorophenyl-1,3-dihydro-1-methyl-2H-1,4-benzodiazepine-2-one] | > 1000 mg/kg | 0.2 mg/kg | 0.16 mg/kg | 5.5 mg/kg | 0.032 mg/kg | 19 mg/kg | 2 mg/kg | 1.9 mg/kg |  |  |
| CC(=O)NCCCC(=O)OC1N=C(c2ccccc2)c2cc(Cl)ccc2N(C)C1=O (centres unmarked) [Example 4, 3-(4-acetamido)butyryloxy-7-chloro-1,3-dihydro-1-methyl-5-phenyl-2H-1,4-benzodiazepine-2-one] | 1000 mg/kg | 5 mg/kg | 2.2 mg/kg | 4 mg/kg | 0.7 mg/kg |  |  | 1.9 mg/kg | 30 mg/kg | 19 mg/kg |
| O=C1Nc2ccc(Cl)cc2C(c2ccccc2)=NC1O (centres unmarked) [Oxazepam, reference compound] | > 1500 mg/kg | 20 mg/kg | 5.5 mg/kg | 40 mg/kg | 4 mg/kg |  |  | 4.2 mg/kg | 28 mg/kg | 25 mg/kg |
| CC(=O)NCCCC(=O)OC1N=C(c2ccccc2Cl)c2cc(Cl)ccc2NC1=O (centres unmarked) [Example 3, 3-(4-acetamido)butyryloxy-7-chloro-5-o-chlorophenyl-1,3-dihydro-2H-1,4-benzodiazepine-2-one] | 1200 mg/kg | 2.6 mg/kg | 0.15 mg/kg | 4.6 mg/kg | 0.02 mg/kg |  |  | 0.18 mg/kg | 42 mg/kg | 4.2 mg/kg |
| CC(C)(C)OC(=O)NCCCC(=O)OC1N=C(c2ccccc2)c2cc(Cl)ccc2NC1=O (centres unmarked) [Example 2, 7-chloro-1,3-dihydro-5-phenyl-3-(4-tertiary-butoxycarbonylamino)butyryloxy-2H-1,4-benzodiazepine-2-one] | > 1500 mg/kg | 14 mg/kg | 7 mg/kg | 60 mg/kg | 1 mg/kg |  |  | 2.6 mg/kg | 42 mg/kg | 16 mg/kg |
| CC(=O)NCCCC(=O)OC1N=C(c2ccccc2)c2cc(Cl)ccc2NC1=O (centres unmarked) [Example 1, 3-(4-acetamido)butyryl-oxy-7-chloro-1,3-dihydro-5-phenyl-2H-1,4-benzodiazepine-2-one] | 1500 mg/kg | 7 mg/kg | 4 mg/kg | 38 mg/kg | 0.22 mg/kg |  |  | 9 mg/kg | 26 mg/kg | 6.5 mg/kg |
| CC(=O)NCC(=O)OC1N=C(c2ccccc2)c2cc(Cl)ccc2NC1=O (centres unmarked) [Example 5, 3-acetamido-acetoxy-7-chloro-1,3-dihydro-5-phenyl-2H-1,4-benzodiazepine-2-one] | 1400 mg/kg | 6 mg/kg | 1.5 mg/kg | 12 mg/kg | 0.32 mg/kg |  |  | 0.7 mg/kg | 34 mg/kg | 15 mg/kg |
